In patent publication US10786522B2, “Compositions that include anthocyanidins and methods of use” (Maqui NewLife S.A., priority 2009, dated 2020):
Marks after values point to notes of the source that are not given here.

Key:
[1] = tested on: PPAR-γ; assay: PPAR-γ-Luc reporter assay in HL-60 cells; assay type: cell-based, Human; conditions: control substances, 12 h, concentration not given
Method: We examined the effect of delphindin-rich anthocyanidins on PPAR-γ activation. HL-60 cells in IMDM medium were transfected with the reporter vectors PPAR-γ-Luc (5 μg) (Panomics) and TK-RL (1 μg) (Promega) using Fugene 6 reagent (Roche), and cultured for 24 hr. Then, the cells were incubated for 12 h in 0.175, 1.75, or 17.5 μg/ml of delphindin-rich anthocyanidins, phorbol myristate acetate (PMA), 15-deoxi-d 12,14-prostaglandin J2 (PGj2), or tumor necrosis factor alpha (TNFα) as controls. Luciferase activity was measured using the Dual-Luciferase Reporter Assay kit (DLR) from Promega in a luminometer (Luminoskan).

[2] = tested on: Sprague Dawley rats; assay: Acute plantar inflammation model (carragenin) in rats; assay type: in vivo, rat; conditions: 1% carragenin, 6 hrs; anthocyanidins 35 mg/kg, diclofenac 2 mg/kg
Method: We assayed the effect of anthocyanidins on inflammation in vivo in an acute plantar inflammation model. Inflammation was induced in Sprague Dawley rats (200 g) using 1% carragenin (Sigma-Aldrich). The animals were treated with 35 mg/kg of anthocyanidins rich in […] (prepared according to the method descirbed in Example 1) or with diclofenac (2 mg/kg). The diameter of the treated legs was measured with a digital caliper over 6 hrs.

[3] = tested on: Jurkat T cells; assay: IL-2 production in Jurkat T cells (ELISA); assay type: cell-based
Method: (§1) 2×10^6 Jurkat T cells in RPMI medium were incubated for 48 hrs at 37° C., in 5% CO2 in the presence of vehicle control solution; or the T cell activator, phorbol 12-myristate 13-acetate/lonomycin (PMA/Io 2 ng/ml 1 uM); 50 μM of delphinidin; 50 μM delphinidin+PMA/Io; 50 μM cyanidin; or 50 μM cyaniding+PMA/Io. Then the supernatants were collected and IL-2 production was analyzed by ELISA using a commercial kit (Becton Dickinson, USA) according to the supplier's directions.
Then the supernatants were collected and analyzed using commercial ELISA kit (Becton Dickinson, USA) to measure IL-2 production according to the supplier's directions.
Jurkat T cells were incubated in either a vehicle control solution; 5 nM andrographolide; 50 μM delphinidin; or 5 nM andrographolide plus 50 μM delphinidin.

[4] = tested on: Human T cells; assay: IL-2 production in freshly isolated human T cells (ELISA); assay type: cell-based; conditions: for Average IL-2 production / Percentage compared to the control (IL-2): 48 hrs
Method: (§2) The effect of delphinidin on IL-2 and INF-γ production was also assayed on freshly isolated human T cells. Human T cells were isolated from blood of healthy volunteers using Lymphoprep reagent. T cells (1×10^6) in RMPI medium were incubated for 48 hrs at 37° C., in 5% CO2 in the presence of a vehicle control solution; 50 μM delphinidin; 50 μM delphinidin+1 μM BTP-2; 50 μM delphinidin+5 μM BTP-2; 50 μM delphinidin+10 μM BTP-2; 1 μM BTP-2; 5 μM. BTP-2; or 10 μM BTP-2. Then the supernatants were collected and analyzed using commercial ELISA kit (Becton Dickinson, USA) to measure IL-2 and INF-γ production according to the supplier's directions.
We evaluated the effect of a combination of delphinidin and andandrographolide on IL-2 production in both freshly harvested human T cells and the Jurkat cell line. Andrographolide was prepared according to the method described in Example 4. Human T cells were isolated from blood of healthy volunteers using Lymphoprep reagent. T cells (1×10^6) in RMPI medium were incubated for 48 hrs at 37° C., in 5% CO2 in the presence of a vehicle control solution; 5 nM andrographolide; 50 μM delphinidin; or 5 nM andrographolide plus 50 μM delphinidin. Then the supernatants were collected and analyzed using commercial ELISA kit (Becton Dickinson, USA) to measure IL-2 production according to the supplier's directions.

[5] = tested on: Jurkat T cells; assay: Calcium entry (SOCE) in Jurkat T cells after addition of CaCl2; assay type: cell-based
Method: To measure calcium entry after 200 seconds, when the levels of calcium returned to the baseline, 0.9 mM of CaCl2 was added, and the fluxes of Ca^2+ were measured as ratio of excitation ratio at 340 and 380 nm, and emission at 509 nm in a spectrofluorimeter during 150 seconds.
4×10^6 FURA 2-AM-loaded Jurkat T cells were incubated in HBSS calcium free medium. The cells were incubated in 50 uM delphinidin or 50 uM delphinidin plus 10 μM BTP-2 and the fluxes of Ca^2+ were measured as ratio of excitation at 340 and 380 nm, and emission at 509 nm, at 37° C. in a spectrofluorimeter (LS55, PerkinElmer).

[6] = tested on: Human T cells; assay: INF-γ production in freshly isolated human T cells (ELISA); assay type: cell-based; conditions: for Average INF-γ production / Percentage vs. control (INF-γ): 48 hrs
Method: as §2

[7] = tested on: Jurkat T cells; assay: Calcium release in Jurkat T cells in HBSS calcium free medium; assay type: cell-based
Method: To measure calcium release, 4×10^6 FURA 2-AM-loaded Jurkat T cells were incubated in HBSS calcium free medium as decribed in Example 6. The cells were incubated in 50 uM delphinidin, or in 50 uM delphinidin and 10 μM N-[4-[3,5-bis(trifluoromethyl)-1H-pyrazol-1-yl]phenyl]-4-methyl-1,2,3-thiadiazole-5-carboxamide (BTP-2, a Store-Operated Calcium Entry (SOCE) inhibitor). The release of Ca^2+ was measured as ratio of excitation at 340 and 380 nm, and emission at 509 nm, for 200 seconds, at 37° C., in a spectrofluorimeter (LS55, PerkinElmer).
4×10^6 FURA 2-AM-loaded Jurkat T cells were incubated in HBSS calcium free medium. The cells were then incubated in 50 uM delphinidin and the fluxes of Ca^2+ were measured as ratio of excitation at 340 and 380 nm, and emission at 509 nm, at 37° C. in a spectrofluorimeter (LS55, PerkinElmer).
4×10^6 FURA 2-AM-loaded Jurkat T cells were incubated in HBSS calcium free medium. The cells were then treated with vehicle alone or 50 or 100 uM U73122 for 10 minutes prior to incubation in 50 uM delphinidin. Ca^2+ flux was measured as ratio of excitation at 340 and 380 nm, and emission at 509 nm, at 37° C. in a spectrofluorimeter (LS55, PerkinElmer).

[8] = tested on: Jurkat T cells; assay: INF-γ production in Jurkat T cells (ELISA); assay type: cell-based; conditions: 48 hrs; for Average INF-γ production / Percentage vs. control (INF-γ): delphinidin 50 μM, cyanidin 50 μM, PMA/Io 2 ng/ml 1 uM
Method: as §1, with “We also explored the effect of delphinidin and cyanidin on Interferon-gamma (INF-γ) production in Jurkat T cells. 2×10^6” for “2×10^6”, “CO2. The samples were incubated” for “CO2”, “13-acetate/Ionomycin” for “13-acetate/lonomycin”, “IFN-γ” for “IL-2”

[9] = tested on: Jurkat T cells; assay: Ca2+ fluxes in FURA 2-AM-loaded Jurkat T cells (spectrofluorimetry, medium with CaCl2); assay type: cell-based
Method: We evaluated the effect of delphinidin on intracellular calcium release in Jurkat T cells. Extracts were prepared according to the method of Example 1. Jurkat T cells in Hanks' Balanced Salt Solution (HBSS) medium (Invitrogen) with 0.9 mM of CaCl2 were loaded with Fura-2-acetoxymethyl ester (2.5 uM FURA 2-AM) for 30 min at 37° C., washed and incubated in 10 μM, 50 μM, and 100 μM delphinidin. The fluxes of Ca^2+ were measured as ratio of excitation at 340 and 380 nm, and emission at 509 nm, for 300 seconds, at 37° C. in a spectrofluorimeter (LS55, PerkinElmer).

[10] = tested on: Jurkat T cells; assay: IL-2 production in Jurkat T cells (ELISA); assay type: cell-based; conditions: Table 9; 48 hrs; delphinidin 50 μM, CsA
[11] = Table 11, andrographolide 5 nM, delphinidin 50 μM
[12] = Table 10, andrographolide 5 nM, delphinidin 50 μM
[13] = andrographolide 5 nM, delphinidin 50 μM
[14] = 1 μM BTP-2, alone or with 50 μM delphinidin
[15] = 5 μM BTP-2, alone or with 50 μM delphinidin
[16] = 10 μM BTP-2, alone or with 50 μM delphinidin
[17] = Table 5, 48 hrs, delphinidin 50 μM, cyanidin 50 μM, PMA/Io 2 ng/ml 1 uM
[18] = calcium free medium, delphinidin 50 μM, BTP-2 10 μM
[19] = 0.9 mM CaCl2 added after 200 seconds, delphinidin 50 μM, BTP-2 10 μM

CCCCC/C=C/C=C1/C(=O)C=C[C@@H]1C/C=C\CCCC(=O)O [PGj2, 15-deoxi-d 12,14-prostaglandin J2]
Average percentage activity of control [PPAR-γ-Luc/TK-RL] ± SD [1]: 256.8 ± 126.9%

O=C(O)Cc1ccccc1Nc1c(Cl)cccc1Cl [Diclofenac, diclofenac]
Average ABC0-6 (area under the curve of the diameter of the treated legs) [2]: 12.5** mm*hr | Decrease percentage compared to control (ABC0-6) [2]: 37.5%

tumor necrosis factor alpha [TNFα]
Average percentage activity of control [PPAR-γ-Luc/TK-RL] ± SD [1]: 283.4 ± 47.23%

C=C1CC[C@@H]2[C@](C)(CO)[C@H](O)CC[C@@]2(C)[C@@H]1C/C=C1/C(=O)OC[C@H]1O [andrographolide]
Average IL-2 production [3, 11]: 0.0140 Abs 450 nm | Percentage compared to the control (IL-2) [3, 11]: 84.8% | Average IL-2 production [4, 12]: 85 pg/mL | Percentage compared to the control (IL-2) [4, 12]: 212.5% | IL-2 levels higher (Table 10) [4, 13]: 112%

Cc1nnsc1C(=O)Nc1ccc(-n2nc(C(F)(F)F)cc2C(F)(F)F)cc1 [BTP-2, N-[4-[3,5-bis(trifluoromethyl)-1H-pyrazol-1-yl]phenyl]-4-methyl-1,2,3-thiadiazole-5-carboxamide]
delphinidin-induced calcium influx in the presence of inhibitor (FIG. 2A, 2B) ([5]; delphinidin 50 μM plus BTP-2 10 μM): reduced | effect on calcium entry and release, result in words ([5]; delphinidin 50 μM, BTP-2 10 μM): inhibited the entry, but not the release | Average IL-2 production ([4]; Table 7, 1 μM BTP-2, alone or with 50 μM delphinidin): 0 pg/mL | Average IL-2 production ([4]; Table 7, 5 μM BTP-2, alone or with 50 μM delphinidin): 0 pg/mL | Average IL-2 production ([4]; Table 7, 10 μM BTP-2, alone or with 50 μM delphinidin): 0 pg/mL | Average INF-γ production [6, 14]: 240 pg/mL | Percentage vs. control (INF-γ) [6, 14]: 64.9% | Average INF-γ production [6, 15]: 390 pg/mL | Percentage vs. control (INF-γ) [6, 15]: 105.4% | Average INF-γ production [6, 16]: 140 pg/mL | Percentage vs. control (INF-γ) [6, 16]: 37.8%

COc1ccc2c(c1)CC[C@@H]1[C@@H]2CC[C@]2(C)[C@@H](NCCCCCCN3C(=O)C=CC3=O)CC[C@@H]12 [U73122, reference compound]
delphinidin induced calcium flux after pretreatment (FIG. 3) ([7]; 50 or 100 uM U73122 for 10 minutes prior to 50 uM delphinidin): dose-dependent reduction

Oc1cc(O)c2cc(O)c(-c3ccc(O)c(O)c3)[o+]c2c1 [cyanidin, Cyanidin]
IL-2 lower than control cells ([3]; 50 μM, 48 hrs): 10% | Average IL-2 production [3, 17]: 45 pg/mL | Percentage vs. control (IL-2) [3, 17]: 90% | INF-γ levels relative to control cells, result in words ([8]; 50 μM): about the same levels | Average INF-γ production [8]: 8 pg/mL | Percentage vs. control (INF-γ) [8]: 100%

Oc1cc(O)c2cc(O)c(-c3cc(O)c(O)c(O)c3)[o+]c2c1 [delphinidin, Delphinidin]
calcium release (FIG. 1), result in words ([7]; 50 uM delphinidin, calcium free medium): induced reversible calcium release | Average AUC of ratio 340/380 during 200 seconds (calcium release) [7, 18]: 51 | Percentage compared to the control (calcium release) [7, 18]: 1700% | AUC higher than untreated control cells (calcium release) ([7]; delphinidin 50 μM, BTP-2 10 uM): 1700% | Average area under the curve of ratio 340/380 during 300 seconds ([9]; 10 μM delphinidin): 100 | Percentage compared to control ([9]; 10 μM delphinidin): 166.7% | area under the curve higher than untreated control cells ([9]; 10 μM delphinidin): 66.7% | Average area under the curve of ratio 340/380 during 300 seconds ([9]; 50 μM delphinidin): 225 | Percentage compared to control ([9]; 50 μM delphinidin): 375% | area under the curve higher than untreated control cells ([9]; 50 μM delphinidin): 275% | Average area under the curve of ratio 340/380 during 300 seconds ([9]; 100 μM delphinidin): 250 | Percentage compared to control ([9]; 100 μM delphinidin): 416.7% | area under the curve higher than untreated control cells ([9]; 100 μM delphinidin): 316.7% | Ca2+ fluxes, result in words ([9]; 10, 50, 100 μM delphinidin): induced Ca^2+ fluxes in Jurkat T cells in a dose-dependent manner | IL-2 levels higher than untreated control cells ([3]; 50 μM, 48 hrs): 240% | Average IL-2 production [3, 17]: 170 pg/mL | Percentage vs. control (IL-2) [3, 17]: 340% | Average IL-2 production [3, 11]: 0.023 Abs 450 nm | Percentage compared to the control (IL-2) [3, 11]: 139.4% | IL-2 levels higher (Table 11) [3, 13]: 39.4% | Average AUC of ratio 340/380 150 sec. after calcium treatments (calcium entry) [5, 19]: 70 | Percentage compared to control (calcium entry) [5, 19]: 184.2% | Average IL-2 production [10]: 240 pg/mL | INF-γ levels higher than untreated control cells ([8]; 50 μM): 250% | Average INF-γ production [8]: 28 pg/mL | Percentage vs. control (INF-γ) [8]: 350% | Average IL-2 production ([4]; Table 7, 50 μM delphinidin alone): 370 pg/mL | Average IL-2 production [4, 12]: 87 pg/mL | Percentage compared to the control (IL-2) [4, 12]: 217.5% | IL-2 levels higher (Table 10) [4, 13]: 117% | INF-γ levels higher than untreated control cells ([6]; 50 μM delphinidin): 950% | Average INF-γ production ([6]; 50 μM delphinidin alone): 3900 pg/mL | Percentage vs. control (INF-γ) ([6]; 50 μM delphinidin alone): 1054.1%
